Source: US20080200635A1, “POLYSILANE COMPOUND AND SYNTHESIS METHOD, ULTRAVIOLET-RAY CURABLE INK COMPOSITION, INKJET RECORDING METHOD AND APPARATUS, AND INK CONTAINER” (SEIKO EPSON CORPORATION, priority 2007, published 2008)

Legend:
[1] = Viscosity of monomers at 25° C.; format: physicochemical; details: measured value at 25° C.
Description: The viscosities in the foregoing table are a measured value at 25° C.

[2] = primary irritation index; cited from earlier work

In the case of `C=C(C)C(=O)OCCCCOC(=O)C(=C)C` [1,4-Butanediol dimethacrylate], the Viscosity [1] is given as 7 mPa · s and the P.I.I. [2] is given as 2.0.

In the case of `C=C(C)C(=O)OCCCCCCOC(=O)C(=C)C` [1,6-Hexanediol dimethacrylate], the Viscosity [1] is listed as 6 mPa · s and the P.I.I. [2] is listed as 0.5.

For `C=CC(=O)OCCCCCCCCCOC(=O)C=C` [1,9-Nonanediol diacrylate], the Viscosity [1] is listed as 21 mPa · s and the P.I.I. [2] is listed as 2.0.

In the case of `C=C(C)C(=O)OCC(O)COC(=O)C(=C)C` [2-Hydroxy-1,3-dimethacryloxypropane], the Viscosity [1] is given as 37 mPa · s and the P.I.I. [2] is given as 0.6.

For `C=C(C)C(=O)OCC1COC(C)(CC)O1` (centres unmarked) [(2-Methyl-2-ethyl-1,3-dioxolan-4-yl)methyl methacrylate], the Viscosity [1] is given as 5.1 mPa · s and the P.I.I. [2] is given as 1.3.

In the case of `C=CC(=O)OCC1COC(C)(CC(C)C)O1` (centres unmarked) [(2-Methyl-2-isobutyl-1,3-dioxolan-4-yl)methyl acrylate], the Viscosity [1] is listed as 5.3 mPa · s and the P.I.I. [2] is listed as 1.0.

Work on `C=CC(=O)N1CCOCC1` [Acryloyl morpholine] yielded a Viscosity [1] of 12 mPa · s.

For `C=C(C)C(=O)OCCOCCOC(=O)C(=C)C` [Diethylene glycol dimethacrylate], the Viscosity [1] is given as 5 mPa · s and the P.I.I. [2] is given as 0.5.

In the case of `C=C(C)C(=O)OCCOC(=O)C(=C)C` [Ethylene glycol dimethacrylate], the Viscosity [1] is listed as 3 mPa · s and the P.I.I. [2] is listed as 0.6.

In the case of `C=CC(=O)O[C@@H]1C[C@H]2CC[C@]1(C)C2(C)C` [Isobonyl acrylate], the Viscosity [1] is given as 2.6 mPa · s and the P.I.I. [2] is given as 0.6.

In the case of `C=CC(=O)OCCOCCOC` [Methoxy diethylene glycol monoacrylate], the Viscosity [1] is given as 2 mPa · s and the P.I.I. [2] is given as 0.7.

In the case of `C=C(C)C(=O)OCC(C)(C)COC(=O)C(=C)C` [Neopentyl glycol dimethacrylate], the Viscosity [1] is given as 7 mPa · s and the P.I.I. [2] is given as 0.0.

In the case of `C=CC(=O)OCCOc1ccccc1` [Phenoxyethyl acrylate], the Viscosity [1] is given as 3.3 mPa · s and the P.I.I. [2] is given as 1.7.

For `C=C(C)C(=O)OCCOCCOCCOCCOC(=O)C(=C)C` [Tetraethylene glycol dimethacrylate], the Viscosity [1] is given as 14 mPa · s and the P.I.I. [2] is given as 0.5.

For `C=C(C)C(=O)OCC(CC)(COC(=O)C(=C)C)COC(=O)C(=C)C` [Trimethylolpropane trimethacrylate], the Viscosity [1] is listed as 42 mPa · s and the P.I.I. [2] is listed as 0.8.

For `C=CC(=O)OCC(C)OCC(C)OCC(C)OC(=O)C=C` (centres unmarked) [Tripropylene glycol diacrylate], the Viscosity [1] is given as 12 mPa · s and the P.I.I. [2] is given as 1.6.

Glycerin PO-modified triacrylate gave a Viscosity [1] of 75 mPa · s.

For Polyethylene glycol #400 diacrylate, the Viscosity [1] is listed as 58 mPa · s and the P.I.I. [2] is listed as 0.4.

For “Trimethylolpropane PO-modified triacrylate”, the Viscosity [1] is listed as 60 mPa · s and the P.I.I. [2] is listed as 0.1.

In the case of Trimethylolpropane modified triacrylate, the Viscosity [1] is given as 55 mPa · s and the P.I.I. [2] is given as 1.5.
